Data set [1] concerns rat carotid artery balloon injury model. The data set can be described thus: Inhibition of late neointimal lesion formation in the 28 day rat carotid artery balloon injury model. Format: in vivo.
The test system of data set [2] is rabbit iliac stent model. In words: Inhibition of restenosis at 28 days in the rabbit iliac stent model. Format: in vivo, New Zealand White rabbit. As to conditions: 28 days after stenting, vs placebo. As to the method:
A.2 Inhibition of Restenosis at 28 Days in the Rabbit Iliac Stent Model
A combined angioplasty and stenting procedure is performed in New Zealand White rabbit iliac arteries. Iliac artery balloon injury is performed by inflating a 3.0×9.0 mm angioplasty balloon in the mid-portion of the artery followed by “pull-back” of the catheter for 1 balloon length. Balloon injury is repeated 2 times, and a 3.0×12 mm stent is deployed at 6 atm for 30 seconds in the iliac artery. Balloon injury and stent placement is then performed on the contralateral iliac artery in the same manner. A post-stent deployment angiogram is performed. All animals receive oral aspirin 40 mg/day daily as anti-platelet therapy and are fed standard low-cholesterol rabbit chow. Twenty-eight days after stenting, animals are anesthetized and euthanized and the arterial tree is perfused at 100 mmHg with lactated Ringer's for several minutes, then perfused with 10% formalin at 100 mmHg for 15 minutes. The vascular section between the distal aorta and the proximal femoral arteries is excised and cleaned of periadventitial tissue. The stented section of artery is embedded in plastic and sections are taken from the proximal, middle, and distal portions of each stent. All sections are stained with hematoxylin-eosin and Movat pentachrome stains. Computerized planimetry is performed to determine the area of the internal elastic lamina (IEL), external elastic lamina (EEL) and lumen. The neointima and neointimal thickness is measured both at and between the stent struts. The vessel area is measured as the area within the EEL. Data are expressed as mean±SEM. Statistical analysis of the histologic data is accomplished using analysis of variance (ANOVA) due to the fact that two stented arteries are measured per animal with a mean generated per animal. A P<0.05 is considered statistically significant.
An MIA, e.g. a compound of formula 1, e.g. epothilone B is administered orally by gavage at an initial dose one day prior to stenting, then dosed at 50% of the initial dose from the day of stenting until day 27 post-stenting.

Data set [3] in a line: (+)-Discodermolide release from polymer coatings in plasma. Format: physicochemical. The settings on record: coated stent pieces in citrated human plasma, 37° C., plasma changed daily. The method, then:
(§1) A stent (e.g. a Multi-Link Vision stent, Guidant Corp.; or a DRIVER stent, Medtronic Corp.) is weighed and then mounted on a rotating or other support for coating with a polymer or other synthetic or biologic carrier used as a drug reservoir. In an example of an application of one such carrier, while the stent is rotating, a 100 μl aliquot of a solution of polylactide glycolide, 0.75 mg/ml of (+)-discodermolide and 0.0015 mg/ml 2,6-di-tert-butyl-4-methylphenol dissolved in a 50:50 mixture of methanol and tetrahydrofuran, is coated onto it. The coated stent is removed from the support and allowed to air-dry. After a final weighing the amount of coating on the stent is determined.
A.5 (+)-Discodermolide Release from Polymer Coatings in Plasma
Release of (+)-discodermolide in plasma can also be studied. 1 cm pieces of a coated stent are put into 1 mL of citrated human plasma (from Helena Labs.) in lyophilized form and reconstituted by adding 1 mL of sterile deionized water. Three sets of stent plasma solutions are incubated at 37° C. and the plasma is changed daily. Different assays are performed on the solution to determine the released (+)-discodermolide concentrations.

Data set [4] can be described thus: (+)-Discodermolide release from polymer coatings in aqueous solution. Format: physicochemical. As to conditions: polylactide glycolide coated stent pieces in PBS pH 7.4 or PEG 400/water 40/60 v/v, 37° C., solutions changed daily; stable = less than 10% of variation of the release rate. As to the method: as §1
A.4 (+)-Discodermolide Release from Polymer Coatings in Aqueous Solution
Four 2 cm pieces of coated stents as described above are placed into 100 mL of phosphate buffer solution (PBS) having a pH of 7.4. Another 4 pieces from each series are placed into 100 mL of polyethylene glycol (PEG)/water solution (40/60 v/v, MW of PEG=400). The stent pieces are incubated at 37° C. in a shaker. The buffer and PEG solutions are changed daily and different assays are performed on the solution to determine the released (+)-discodermolide concentrations.

Setting [5] is: administered locally to the adventitia via catheter/Alzet minipump.

On to `C/C(=C\c1csc(C)n1)[C@@H]1C[C@@H]2O[C@]2(C)CCC[C@H](C)[C@H](O)[C@@H](C)C(=O)C(C)(C)[C@@H](O)CC(=O)O1` [epothilone B], for which the “infiltration of CD45+ leukocytes” value in data set [1] (administered locally to the adventitia adjacent to the ballooned carotid via catheter/Alzet minipump, day 1) is on record as “potent inhibition”. Moreover, in data set [1] (setting [5]), the constrictive remodeling result is listed as “potent inhibition”; the “early (9 days post-ballooning) and late (21-31 days post-ballooning) neointimal lesions” value is “potent inhibition”. In data set [1] (rats dosed orally, daily, 1 day after balloon injury), the “CD45-positive leukocyte infiltration into the vessel wall and adventitia” value is “significantly reduce”. Besides, the “neointimal lesion formation following balloon injury” value in data set [1] (rats dosed orally, daily, at 9 and 12 days) is “significantly reduce”. Also, the “extent of restenotic lesion formation” value in data set [2] (oral gavage from one day prior to stenting until day 27) is reported as “marked reduction”. Also, in data set [2] (oral gavage), the “lesion formation in the portions of artery immediately proximal and immediately distal to the stent” value is listed as “inhibited”; the “number of inflammatory cells, especially in the area surrounding the stent struts” value is “significantly reduced”.
Consider (+)-discodermolide, for which, in data set [3], the “drug release from coated stents in plasma” value is reported as “stable (+)-discodermolide release”. The “drug release from coated stents” value in data set [4] was “stable (+)-discodermolide release”.

The record behind these values is patent US20060062823A1, “Microtubule stabilisers for treating stenosis in stents” (priority 2002, published 2006).
